Each structure is given as a SMILES string.

The values below come from PMC5446891, “Inhibition of α-Amylases by Condensed and Hydrolysable Tannins: Focus on Kinetics and Hypoglycemic Actions” (Enzyme Research, 2017).

Experiment [1] deals with intestinal starch absorption (in vivo α-amylase). In words: glycemic levels of rats after starch administration. As to conditions: intragastric with starch 1 g/kg, 60 min; acarbose 50 mg/kg, tannins 100-500 mg/kg. Further details: species or system Wistar rats. The procedure:
Male healthy Wistar rats weighing 200-250 g were used in all experiments. The rats were housed, fed, and treated in accordance with the universally accepted guidelines for animal experimentation. Prior to the investigations, the animals were kept for one week under standard environmental conditions. Throughout the experimentation period, the rats were maintained in single cages and had access to standard pelleted diet and water ad libitum. Food was withdrawn 18 h before the experiments. All experiments involving rats were done in accordance with the worldwide accepted ethical guidelines for animal experimentation and previously approved by the Ethics Committee for Animal Experimentation of the University of […]á (Protocol number 067/2014-CEUA-UEM). Rats were divided into 9 groups (n = 4 rats per group). To group I (positive control) commercial corn starch (1 g per kg body weight) was given intragastrically. Group II (negative control) received only tap water. […] Fasting blood glucose levels were determined before the administration of starch and amylase inhibitors (0 time). […] Blood glucose from cut tail tips was determined using Accu-Chek® Active Glucose Meter. […] The areas were determined with the corresponding data in Figures 6(a) and 6(b) using the numerical integration procedures of the Scientist Software from MicroMath Scientific Software (Salt Lake City, UT). […]

The target of experiment [2] is T1, porcine pancreatic α-amylase (Sus scrofa, UniProt P00690).
T1 construct: purchased Sigma-Aldrich Co. Type VI-B
T1 sequence (P00690 16-511): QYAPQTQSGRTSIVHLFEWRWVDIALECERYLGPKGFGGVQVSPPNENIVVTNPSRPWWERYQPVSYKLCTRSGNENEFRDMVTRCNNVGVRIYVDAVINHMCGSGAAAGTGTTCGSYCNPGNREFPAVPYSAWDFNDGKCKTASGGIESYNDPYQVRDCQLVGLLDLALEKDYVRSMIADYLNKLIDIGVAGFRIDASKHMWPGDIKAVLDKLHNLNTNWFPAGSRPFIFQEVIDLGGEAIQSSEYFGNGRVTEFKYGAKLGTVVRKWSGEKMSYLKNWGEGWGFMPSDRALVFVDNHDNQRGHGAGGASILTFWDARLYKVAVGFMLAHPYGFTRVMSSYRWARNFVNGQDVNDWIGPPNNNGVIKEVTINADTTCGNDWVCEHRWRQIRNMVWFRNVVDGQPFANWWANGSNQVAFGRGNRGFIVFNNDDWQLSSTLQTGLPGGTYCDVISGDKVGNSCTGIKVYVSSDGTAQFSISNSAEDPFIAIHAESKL
Further details: method as in doi:10.1016/j.foodres.2013.12.004, PMID 8944767. The conditions noted are these: cited from earlier work.

Take `C[C@H]1O[C@H](O[C@H]2[C@H](O)[C@@H](O)[C@@H](O[C@H]3[C@H](O)[C@@H](O)C(O)O[C@@H]3CO)O[C@@H]2CO)[C@H](O)[C@@H](O)[C@@H]1N[C@H]1C=C(CO)[C@@H](O)[C@H](O)[C@H]1O` (some centres unmarked) [acarbose]: in experiment [1], the “effect on glycemic levels after starch administration” value is “diminished the increase in blood glucose concentration”. The “inhibitory potency compared with the tannins” value in experiment [2] was “much better inhibitor of the pancreatic α-amylase than the tannins”.
